Measurements taken from patent US20050222266A1, “2-indanylamino derivatives for the therapy of chronic pain” (priority 2002, published 2005).
Where a name gives a salt, the structure may show the parent alone.

Legend:
MAO (mono amino oxidase) = assay: MAO inhibiting activity; type: biochemical
[1] = test system: ion channel associated to NMDA receptors; assay: inhibiting activity on NMDA-associated ion channel; type: biochemical
[2] = test system: mechanical hyperalgesia in streptozotocin (STZ)-induced diabetic neuropathy; assay: streptozotocin-induced diabetic neuropathy, paw pressure test; type: in vivo, rat; details: for Nociceptive threshold: 60 minutes before measurement; for % variation of the nociceptive threshold: vs vehicle-treated diabetic group
Method: The objective of this study was to assess the antinociceptive effects of CHF 3381 (25, 50 and 100 mg/kg p.o.) and gabapentin (100 mg/kg p.o) on mechanical hyperalgesia in streptozotocin (STZ)-induced diabetic neuropathy in rats. Diabetes was induced by intraperitoneal injection of STZ (75 mg/kg), and 23 days later its presence was confirmed by measuring of tail vein blood glucose levels and only rats with […] were included in the study.
After 25 days, distilled water, CHF3381 and gabapentin were administered 60 minutes before pain measurement. The nociceptive threshold was evaluated in all groups using a mechanical nociceptive stimulation (paw pressure test).
An increasing pressure (grams of contact pressure) was applied onto the both hind paws of the animal until a nociceptive reaction (vocalisation or paw withdrawal) was determined. The results, expressed as the percentage variation of the nociceptive threshold calculated respect the mean value of the vehicle-treated diabetic group, are reported in Table 2.

[3] = test system: formalin-induced licking and flinching; assay: mouse formalin test, 9 day treatment (tolerance); type: in vivo, mice
Method: The mice paw formalin test was performed as described by Wheeler-Aceto et al. (Psychopharmacology 104:35-44, 1991). Briefly, the day before the formalin injection, mice were placed individually into clear plastic cylinders for 30 minutes of adaptation. The day of testing 20 μl of 1% formalin was injected into the plantar surface of the left hind paw and the animals were again placed into the plastic cylinder for the behavioural observation. The amount of time, in seconds, the animals spent licking and flinching (L/F) the injected paw for the first 5 min (early phase), and then from 10 to 40 min(late phase) after formalin injection, was used as measurement of intensity of pain. CHF 3381 10-100 mg/kg i.p. and 25-200 mg/kg p.o. or the corresponding vehicles, were administered 15 and 30 min before formalin injection, respectively.
Moreover, the formalin test was used to examine whether tolerance develops with respect to the antihyperalgesic effect of CHF 3381 after chronic treatment in comparison with the standard opioid morphine. Briefly, mice were divided randomly into five groups (12 mice per group) and administered once daily for 8 days as follows: three groups with saline i.p., one group with CHF 3381 60 mg/kg i.p. and one group with morphine 20 mg/kg i.p. On ninth day these groups were treated in following way: one saline pre-treated group was treated with saline i.p. (g1); two saline pre-treated group were treated with CHF 3381 30 mg/kg i.p. (g2) and with morphine 6 mg/kg i.p. (g3), respectively; the group pre-treated with CHF 3381 60 mg/kg was treated with CHF 3381 30 mg/kg i.p. (g4) and the group pre-treated with morphine 20 mg/kg was treated with morphine 6 mg/kg i.p.(g5), a dose that was previously shown to be active in the formalin test. CHF 3381 and morphine were administered 15 and 30 min before formalin injection, respectively.

[4] = test system: acute pain, hot plate 55° C.; assay: hot-plate test, mice; type: in vivo; details: 15 min
Method: The effect of CHF 3381 was studied in acute pain with hot-plate test described by Eddy et al (1953). The test was performed on an electrically heated and thermostatically controlled copper surface, set to a temperature of 55 or 51° C. with mice and rats, respectively.
The animals were confined to the hot plate by a transparent observation chamber and the latency to the response consisting of licking of the hind paws, was measured. A cut-off period of 60 sec was used to avoid tissue damage.
After i.p. administration, CHF 3381 (30-45-60 and 100 mg/kg in mouse; 30-37-45 and 60 mg/kg in rats), produced a significant and dose-dependent increase in the latency of the hindpaw licking response compared to vehicle-treated animals (Table 6).

rotarod test, rats = details: rat, in vivo, 15 min before test
Method: The side-effect profile of CHF 3381 was then evaluated in the rotarod test both in mice and rats. The day before the execution of the test, mice and rats were trained to maintain their equilibrium on the test apparatus. For mice, training consisted of 3 subsequent 2 min attempts on a rod rotating from 4.5 r.p.m. to 16.5 r.p.m.; for rats, of 3 subsequent 1 min attempts at 8 rpm (Kinnard and Carr, 1957). The morning of the test day, mice and rats were again tested on the rotarod and only animals able to maintain their equilibrium on the rod were retained for the experimental procedure. CHF 3381 was administered p.o. or i.p. to groups of at least 8 animals 15 min (time of peak effect for neurotoxicity) before the execution of the test. All controls received the corresponding vehicle. The number of mice falling during a 2-min test period and the number of rats falling for 3 subsequent 1-min attempts were used for the calculation of the respective doses at which 50% of the animals display neurotoxicity (TD50).

NMDA receptors channels = details: displacement of [3H]-TPC; cited from earlier work
[5] = G2: 30 mg/kg i.p. on ninth day after 8 days saline
[6] = G4: 30 mg/kg i.p. on ninth day after 8 days CHF 3381 60 mg/kg i.p.

For `NC(=O)CNC1Cc2ccccc2C1` [CHF 3381, N-2(indanyl)-glicinamide hydrochloride], the “inhibiting activity towards MAO” value (MAO (mono amino oxidase)) was “inhibiting activity”, the “inhibiting activity towards ion channel associated to NMDA receptors” value [1] was “inhibiting activity” and the Nociceptive threshold ([2]; 25 mg/kg p.o.) was 250.0 ± 17.0 g. For the same compound, the “% variation of the nociceptive threshold” value ([2]; 25 mg/kg p.o.) was 83%, the Nociceptive threshold ([2]; 50 mg/kg p.o.) was 319.2 ± 48.5 g and the “% variation of the nociceptive threshold” value ([2]; 50 mg/kg p.o.) was 134%. For the same compound, the Nociceptive threshold ([2]; 100 mg/kg p.o.) was 287.5 ± 20.3 g, the “% variation of the nociceptive threshold” value ([2]; 100 mg/kg p.o.) was 110% and the Early phase [3, 5] was 53 ± 8 s. For the same compound, the Late phase [3, 5] was 91 ± 21 s, the Early phase [3, 6] was 56 ± 6 s and the Late phase [3, 6] was 74 ± 21 s. For the same compound, the “antihyperalgesic action after chronic treatment (tolerance)” value ([3]; once daily for 8 days, test on ninth day) was “lack of development of tolerance”, the “latency of the hindpaw licking response” value ([4]; 30 mg/kg i.p.) was 19.40 ± 1.37 s and the “latency of the hindpaw licking response” value ([4]; 45 mg/kg i.p.) was 20.16 ± 1.73 s. The “latency of the hindpaw licking response” value ([4]; 60 mg/kg i.p.) was 26.95 ± 2.45 s, the “latency of the hindpaw licking response” value ([4]; 100 mg/kg i.p.) was 37.71 ± 3.17 s and the TD50 at 15 min (rotarod test, rats; ip, i.p. administration) was 113 mg/kg. For the same compound, the TD50 at 15 min (rotarod test, rats; oral administration) was 299 mg/kg and the Ki (NMDA receptors channels) was 8.8 µM.
